Reference: US11274332B2, “Methods of administering 3,4-diaminopyridine” (SERB SA, priority 2011, dated 2022)
Read-outs that look alike come from different tables or passages of the source.

Test: Example 18 Part 2: multiple dose PK (20 mg QID) of 3,4-DAP and 3-N-acetyl metabolite in slow and fast acetylators
Assay type: in vivo, human
Settings: for AUC(0-t) / Cmax / Tmax / Vd/F / half-life: both sexes, human, plasma, oral, 20 mg; for Cmax: read-out: Cmax; for Tmax: read-out: Tmax; for Vd/F: read-out: Vz/F; for half-life: read-out: t1/2 (converted)
Description: The following method was used to analyze concentrations of 3,4-diaminopyridine and N-(4-aminopyridin-3-yl)acetamide in plasma and urine samples for the experiments in Example 18. In the LC/MS/MS method, the human plasma and urine samples were extracted using acetonitrile containing 0.1% formic acid. Samples were analyzed by using HPLC with positive ion electrospray MS/MS detection. The column was an Atlantis HILIC Silica column (3 μm, 3×50 mm) at a temperature of 40° C. Mobile phase A was water containing ammonium formate (20 mM) and 0.1% formic acid. Mobile phase B was acetonitrile/isopropanol (90/10; v/v) containing 0.1% formic acid. The flow rate was 0.90 mL/minute. The gradient conditions for human plasma and urine samples were as follows:
The LC/MS/MS method was validated to quantify 3,4-DAP in human plasma in the linear calibration range of 0.500 to 500 ng/mL and from 1.00 to 1000 ng/mL for the 3-N-acetyl metabolite.
The primary objective of the study was to assess the safety and tolerability of 3,4-DAP phosphate after single and multiple doses. The secondary objectives of the study were • Part 1 only: To determine the dose-related PK profile of amifampridine and of 3-N-acetyl amifampridine after single, escalating doses of 3,4-DAP phosphate • Part 2 only: To assess the steady-state plasma PK and accumulation of amifampridine and of 3-N-acetyl amifampridine over multiple days of dosing with 3,4-DAP phosphate An exploratory objective was to examine the overall activity of the N-acetyl transferase enzymes on the metabolism of amifampridine by assessing the PK of amifampridine and 3-N-acetyl amifampridine with phenotypic acetylation activity and genotyping determination of NAT2 gene polymorphisms. Study Design and Plan
This open-label study in healthy subjects (male and female) was conducted in 2 parts. A total of 26 healthy male and female subjects, 12 in Part 1 (at least 5 of each sex), 4 in Part 2 Group 1, and 10 in Part 2 Group 2 (at least 4 of each sex) were enrolled into the study. The same subjects were not enrolled to participate in both parts. Subjects in Part 2 were dosed only after all subjects of Part 1 completed dosing and at least 24-hours of follow-up safety evaluation after the last dose were completed.
All subjects were characterized for their metabolic acetylation phenotype and NAT2 genotype in order to divide subjects into two groups of acetylators. Volunteers were genetically typed for highly variant alleles of the N-acetyl transferase 2 enzyme (NAT2) domain on chromosome 8 (according to Example 16) and were phenotyped for acetylation rates with a caffeine challenge test (according to Example 15a). Approximately equal numbers of slow and fast acetylators (as defined by a caffeine challenge test in Example 15a) were enrolled in each group. In Part 2, very slow acetylators with NAT2 activity (ratio 1, Example 15a) below 0.06 were excluded from participation in the study. In each part of the study, subjects were assessed for PK, safety, and tolerability and all doses were administered within 30 min of ingestion of a meal or a snack.
Part 2, Group 1: Four sentinel subjects were selected after determining their acetylator status. Two were fast acetylators and two were slow acetylators. All four were dosed on Day 1 with 4 oral doses of 20 mg of 34-DAP phosphate (given at 4-hour dosing intervals). On Days […] and 2, safety and tolerability data was collected. Subjects left the clinic on Day 2. The safety and tolerability data collected for these 4 sentinel subjects were reviewed. The safety and tolerability results of Days 1 and 2 for these subjects were acceptable and thus Part 2 Group 2 was commenced. Minimally acceptable safety was defined as the absence of clinical seizure activity. Subjects in Group 1 returned to the clinic for their follow-up assessments 2-4 days following their last dose.
Each subject was given a final morning dose of 20 mg 3,4-DAP phosphate on Day 4. […]

[1] = Day 1, fast acetylators, Dose 1 interval, 20 mg QID, arith. mean
[2] = Day 1, fast acetylators, Dose 2 interval, 20 mg QID, arith. mean
[3] = Day 1, fast acetylators, Dose 3 interval, 20 mg QID, arith. mean
[4] = Day 1, fast acetylators, Dose 4 interval, 20 mg QID, arith. mean
[5] = Day 1, slow acetylators, Dose 1 interval, 20 mg QID, arith. mean
[6] = Day 1, slow acetylators, Dose 2 interval, 20 mg QID, arith. mean
[7] = Day 1, slow acetylators, Dose 3 interval, 20 mg QID, arith. mean
[8] = Day 1, slow acetylators, Dose 4 interval, 20 mg QID, arith. mean
[9] = Day 3, fast acetylators, Dose 1 interval, 20 mg QID, arith. mean
[10] = Day 3, fast acetylators, Dose 2 interval, 20 mg QID, arith. mean
[11] = Day 3, fast acetylators, Dose 3 interval, 20 mg QID, arith. mean
[12] = Day 3, fast acetylators, Dose 4 interval, 20 mg QID, arith. mean
[13] = Day 3, slow acetylators, Dose 1 interval, 20 mg QID, arith. mean
[14] = Day 3, slow acetylators, Dose 2 interval, 20 mg QID, arith. mean
[15] = Day 3, slow acetylators, Dose 3 interval, 20 mg QID, arith. mean
[16] = Day 3, slow acetylators, Dose 4 interval, 20 mg QID, arith. mean
[17] = metabolite, Day 4, 20 mg single dose, fast acetylators
[18] = metabolite, Day 4, 20 mg single dose, slow acetylators

CC(=O)Nc1cnccc1N [3-N-acetyl amifampridine, N-(4-aminopyridin-3-yl)acetamide]
CL/F [1]: 16.2 L/h | CL/F [2]: 7.78 L/h | CL/F [3]: 8.90 L/h | CL/F [4]: 7.62 L/h | CL/F [5]: 28.8 L/h | CL/F [6]: 20.2 L/h | CL/F [7]: 13.5 L/h | CL/F [8]: 10.4 L/h | CL/F [9]: 11.5 L/h | CL/F [10]: 7.56 L/h | CL/F [11]: 7.72 L/h | CL/F [12]: 7.03 L/h | CL/F [13]: 19.0 L/h | CL/F [14]: 14.5 L/h | CL/F [15]: 12.7 L/h | CL/F [16]: 9.65 L/h | AUC(0-t) (Day 1, fast acetylators, Dose 1-4, 20 mg QID, arith. mean, read-out: AUC0-24): 5740 ng·h/mL | AUC(0-t) (Day 1, fast acetylators, Dose 1 interval, 20 mg QID, arith. mean, read-out: AUC0-4): 773 ng·h/mL | Cmax [1]: 333 ng/mL | Tmax [1]: 1.43 h | Vd/F [1]: 55.2 L | half-life [1]: 2.35 h | AUC(0-t) (Day 1, fast acetylators, Dose 2 interval, 20 mg QID, arith. mean, read-out: AUC0-4): 1160 ng·h/mL | Cmax [2]: 396 ng/mL | Tmax [2]: 1.5 h | Vd/F [2]: 32.9 L | half-life [2]: 2.93 h | AUC(0-t) (Day 1, fast acetylators, Dose 3 interval, 20 mg QID, arith. mean, read-out: AUC0-4): 1280 ng·h/mL | Cmax [3]: 426 ng/mL | Tmax [3]: 0.964 h | Vd/F [3]: 40.3 L | half-life [3]: 3.28 h | AUC(0-t) (Day 1, fast acetylators, Dose 4 interval, 20 mg QID, arith. mean, read-out: AUC0-4): 1340 ng·h/mL | Cmax [4]: 433 ng/mL | Tmax [4]: 1.14 h | Vd/F [4]: 40 L | half-life [4]: 3.93 h | AUC(0-t) (Day 1, slow acetylators, Dose 1-4, 20 mg QID, arith. mean, read-out: AUC0-24): 3580 ng·h/mL | AUC(0-t) (Day 1, slow acetylators, Dose 1 interval, 20 mg QID, arith. mean, read-out: AUC0-4): 383 ng·h/mL | Cmax [5]: 150 ng/mL | Tmax [5]: 1.68 h | Vd/F [5]: 120 L | half-life [5]: 2.95 h | AUC(0-t) (Day 1, slow acetylators, Dose 2 interval, 20 mg QID, arith. mean, read-out: AUC0-4): 627 ng·h/mL | Cmax [6]: 204 ng/mL | Tmax [6]: 1.46 h | Vd/F [6]: 101 L | half-life [6]: 3.5 h | AUC(0-t) (Day 1, slow acetylators, Dose 3 interval, 20 mg QID, arith. mean, read-out: AUC0-4): 759 ng·h/mL | Cmax [7]: 240 ng/mL | Tmax [7]: 1.25 h | Vd/F [7]: 71.5 L | half-life [7]: 4 h | AUC(0-t) (Day 1, slow acetylators, Dose 4 interval, 20 mg QID, arith. mean, read-out: AUC0-4): 769 ng·h/mL | Cmax [8]: 235 ng/mL | Tmax [8]: 1.71 h | Vd/F [8]: 70.6 L | half-life [8]: 4.74 h | AUC(0-t) (Day 3, fast acetylators, Dose 1-4, 20 mg QID, arith. mean, read-out: AUC0-24): 6570 ng·h/mL | AUC(0-t) (Day 3, fast acetylators, Dose 1 interval, 20 mg QID, arith. mean, read-out: AUC0-4): 1020 ng·h/mL | Cmax [9]: 374 ng/mL | Tmax [9]: 1.35 h | Vd/F [9]: 44.5 L | half-life [9]: 2.77 h | AUC(0-t) (Day 3, fast acetylators, Dose 2 interval, 20 mg QID, arith. mean, read-out: AUC0-4): 1320 ng·h/mL | Cmax [10]: 448 ng/mL | Tmax [10]: 1.3 h | Vd/F [10]: 36.6 L | half-life [10]: 3.6 h | AUC(0-t) (Day 3, fast acetylators, Dose 3 interval, 20 mg QID, arith. mean, read-out: AUC0-4): 1410 ng·h/mL | Cmax [11]: 490 ng/mL | Tmax [11]: 0.9 h | Vd/F [11]: 39.2 L | half-life [11]: 3.74 h | AUC(0-t) (Day 3, fast acetylators, Dose 4 interval, 20 mg QID, arith. mean, read-out: AUC0-4): 1460 ng·h/mL | Cmax [12]: 509 ng/mL | Tmax [12]: 1.1 h | Vd/F [12]: 42 L | half-life [12]: 4.17 h | AUC(0-t) (Day 3, slow acetylators, Dose 1-4, 20 mg QID, arith. mean, read-out: AUC0-24): 3650 ng·h/mL | AUC(0-t) (Day 3, slow acetylators, Dose 1 interval, 20 mg QID, arith. mean, read-out: AUC0-4): 523 ng·h/mL | Cmax [13]: 206 ng/mL | Tmax [13]: 1.75 h | Vd/F [13]: 95 L | half-life [13]: 3.47 h | AUC(0-t) (Day 3, slow acetylators, Dose 2 interval, 20 mg QID, arith. mean, read-out: AUC0-4): 684 ng·h/mL | Cmax [14]: 222 ng/mL | Tmax [14]: 1.5 h | Vd/F [14]: 81.5 L | half-life [14]: 3.89 h | AUC(0-t) (Day 3, slow acetylators, Dose 3 interval, 20 mg QID, arith. mean, read-out: AUC0-4): 802 ng·h/mL | Cmax [15]: 249 ng/mL | Tmax [15]: 1.2 h | Vd/F [15]: 68.1 L | half-life [15]: 3.75 h | AUC(0-t) (Day 3, slow acetylators, Dose 4 interval, 20 mg QID, arith. mean, read-out: AUC0-4): 814 ng·h/mL | Cmax [16]: 258 ng/mL | Tmax [16]: 0.9 h | Vd/F [16]: 78.3 L | half-life [16]: 5.7 h | AUC(0-t) (metabolite, Day 4, 20 mg single dose, fast acetylators, read-out: Mean AUC0-4): 1030 ng·h/mL | AUC(0-t) (metabolite, Day 4, 20 mg single dose, fast acetylators, read-out: Mean AUC0-24): 2120 ng·h/mL | AUC(0-t) (metabolite, Day 4, 20 mg single dose, slow acetylators, read-out: Mean AUC0-4): 513 ng·h/mL | AUC(0-t) (metabolite, Day 4, 20 mg single dose, slow acetylators, read-out: Mean AUC0-24): 1230 ng·h/mL | Mean CL/F [17]: 69.4 L/h | Mean t1/2 [17]: 1.40 h | Mean CL/F [18]: 116 L/h | Mean t1/2 [18]: 1.55 h
